Key:
SV-HUC-1 = assay: MTT assay, normal cell line SV-HUC-1; format: cell-based; conditions: SV-HUC1, 48 h, mean ± SD
Procedure: Having evaluated their Topo I inhibitory activity, the antiproliferative activity of the target compounds against some common human cancer cell lines (NCI-H460, A549, ACHN, Cal27 and MGC-803) and one normal cell line (SV-HUC-1) was tested via an MTT assay. TPT, the first Topo I inhibitor approved in clinics, and cisplatin (CDDP), a commonly selected anticancer drug for treating head and neck malignancies, were used as the positive controls.
Human oral cancer Cal27 cells were seeded in 96-well plates and incubated overnight in 180 μL of medium containing 10% Fetal Bovine Serum (Gibco, San Francisco, CA, USA). […] Then, 10 μL of 5 mg/mL MTT solution was added to each well and incubated at 37 °C for 4 h. After 4 h of incubation at 37 °C, the MTT-containing medium was removed and DMSO was added to each well and the absorbance at 570 nm and 630 nm was measured using a microplate reader (CYTATION 3, Burton, Westwood, NJ, USA). Survival/% = (mean OD of experimental group/mean OD of control group) × 100%. Each test was repeated at least three times.

Topo I = target: T1, Topo I (Homo sapiens, UniProt P11387); assay: Topo I inhibitory activity, agarose gel electrophoresis (pBR322); format: biochemical
T1 sequence (P11387 1-765): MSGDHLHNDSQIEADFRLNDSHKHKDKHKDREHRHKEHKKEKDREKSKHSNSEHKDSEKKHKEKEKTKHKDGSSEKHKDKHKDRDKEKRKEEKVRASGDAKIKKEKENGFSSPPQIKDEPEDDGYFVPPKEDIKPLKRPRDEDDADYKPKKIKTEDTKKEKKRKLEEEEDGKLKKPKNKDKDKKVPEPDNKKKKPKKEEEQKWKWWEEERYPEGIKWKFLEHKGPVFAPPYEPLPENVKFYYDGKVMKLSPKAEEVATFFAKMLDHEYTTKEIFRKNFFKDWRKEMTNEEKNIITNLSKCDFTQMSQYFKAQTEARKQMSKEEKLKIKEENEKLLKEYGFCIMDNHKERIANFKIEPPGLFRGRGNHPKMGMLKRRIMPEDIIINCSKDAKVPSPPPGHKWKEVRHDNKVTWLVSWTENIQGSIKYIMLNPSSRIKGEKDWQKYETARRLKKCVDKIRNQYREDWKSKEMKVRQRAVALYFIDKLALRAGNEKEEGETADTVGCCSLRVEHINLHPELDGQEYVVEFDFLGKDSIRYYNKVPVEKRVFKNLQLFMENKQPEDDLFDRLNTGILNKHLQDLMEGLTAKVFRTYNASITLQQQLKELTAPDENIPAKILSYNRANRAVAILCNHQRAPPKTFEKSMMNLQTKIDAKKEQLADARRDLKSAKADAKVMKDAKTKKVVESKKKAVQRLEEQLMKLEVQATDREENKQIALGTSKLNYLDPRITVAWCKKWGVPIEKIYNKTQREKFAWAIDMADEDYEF
Procedure: In this assay, 250 ng of pBR322 plasmid DNA, different concentrations of the compounds to be tested, 0.1% BSA 1 μL, 10× Topo I buffer, Topo I and add 1× TAE buffer were mixed to a final volume of 20 μL. The reaction was carried out for 30 min at 37 °C in a water bath. After the reaction was terminated, 4 μL of each of the 6× DNA Sampling Buffers were added to the gel. The pBR322 plasmid DNA alone was used as a negative control, and camptothecin was used as a positive control. Finally, the samples were loaded onto the gels and electrophoresed for about 1.5 h. After electrophoresis, the gel blocks were incubated in 1 mg/L ethidium bromide (EB) for 30 min and then visualized on the gel system.

c-MYC = assay: RT-qPCR of c-MYC transcription in Cal27 cells; format: cell-based, human; conditions: Cal27, 24 h
Procedure: Cal27 cells were plated in a 6-well plate and incubated for 12 h at 37 °C in a humidified atmosphere with 5% CO2, then compound 7be was added at final concentrations of 1 μM, 2 μM, 3 μM and 4 μM. After incubation for 24 h, cells were harvested, and the RNA was extracted according to the manufacturer’s instructions. Total RNA was used as a template for reverse transcription. The cDNA was obtained and applied directly for further qPCR. According to the manufacturer’s protocol, the real-time PCR was performed on a real-time PCR apparatus. The total volume of 20 μL of quantitative reaction mixtures contained 10 μL of SYBR Green qPCR Mix, 0.4 μL PCR Forward Primer (10 μM), 0.4 μL PCR Reverse Primer (10 μM) and 2 μL of cDNA (Table S4). The c-MYC mRNA levels were normalized to the GAPDH mRNA level of each sample. Results of real-time PCR were analyzed using the 2^−ΔCt method.

[1] = test system: Bax, Bcl-2, Cleaved PARP1/PARP1 in Cal27 cells; assay: Western blot of apoptosis-related proteins; format: cell-based, human
Procedure: After Cal27 cells had been treated with the desired concentration of each drug for 24 h, the cells were collected and the total protein was extracted. The cells were then separated on a gel of appropriate concentration and transferred to a PVDF membrane. After blocking with milk, the membrane was incubated with primary antibody at 4 °C overnight. Subsequently, the membrane was incubated with horseradish peroxidase-coupled secondary antibody for 2 h. Finally, the protein bands were used to detect the immunoreactive signal using an enhanced chemiluminescence kit.

Cal27 cells = assay: Colony formation assay; format: cell-based, human; conditions: Cal27, tested 0.5, 1, 1.5 μM
Procedure: The colony formation assay was used to evaluate the antiproliferative effect of compound 7be on Cal27 cells. Cal27 cells were grown in 6-well plates at a density of 700 cells per well and then treated with different concentrations of compound 7be for 48 h. The treatment medium was removed and fresh medium was added. After 2 weeks of culture, cells were fixed with 4% paraformaldehyde for 8 min and stained with crystal violet solution (10%). Finally, they were imaged with a camera.

Topo I inhibitory activity (in words) (Topo I; 20 μM): potent Topo I activity | concentration at which the activity of Topo I was fully inhibited (Topo I; different concentrations): 20 µM
Structure (SMILES): Cc1cc(C)c2c(n1)S(=O)(=O)c1c-2nc(NCCN2CCCCC2)c2ccccc12 [7be, 7,9-Dimethyl-5-((2-(piperidin-1-yl)ethyl)amino) pyrido[3′,2′:4,5]thieno[3,2-c]isoquinoline 11,11-dioxide]
IC50 (SV-HUC-1): 5.18 ± 1.77 µM | concentration needed to significantly inhibit the transcription of c-MYC (c-MYC): 8 µM | Cleaved PARP1/PARP1 [1]: up-regulated | anti-apoptotic protein Bcl-2 [1]: down-regulated | pro-apoptotic protein Bax [1]: up-regulated | concentration completely suppressing colony formation ability (Cal27 cells): 1.5 µM

— publication PMC11858653, “Design, Synthesis and Bioactive Evaluation of Topo I/c-MYC Dual Inhibitors to Inhibit Oral Cancer via Regulating the PI3K/AKT/NF-κB Signaling Pathway” (Molecules, 2025)
